Source: patent US20210387964A1, “HETEROARYLAMINOQUINOLINES AND ANALOGUES” (Bayer Aktiengesellschaft, priority 2018, published 2021)

Experiment: log P by HPLC on reversed-phase column (C 18), EEC Directive 79/831 Annex V.A8
Format: physicochemical
Conditions: not given
Protocol: In table 1, the log P values were determined in accordance with EEC Directive 79/831 Annex V.A8 by HPLC (High Performance Liquid Chromatography) on a reversed-phase column (C 18), using the method described below: […] If more than one Log P value is available within the same method, all the values are given and separated by “;”.

Row | logP | chromatographic logP | Molecule
1 | 1.88 |  | Cc1nc2ccccc2nc1Nc1cccnc1-c1ccnn1C [I.01]
2 | 1.72 |  | Cn1nccc1-c1ncccc1Nc1cnc2c(F)cccc2c1 [I.02]
3 | 1.39 |  | Cc1c(Nc2ccsc2-c2ccnn2C)cnc2ccccc12 [I.03]
4 | 2.02 |  | Cn1nccc1-c1ncccc1Nc1cnc2ccccc2c1Cl [I.08]
5 | 1.93 |  | Cn1nccc1-c1ncccc1Nc1cnc2c(F)c(F)ccc2c1 [I.09]
6 | 2.13 |  | Cn1nccc1-c1ncccc1Nc1cnc2c(F)c(F)ccc2n1 [I.10]
7 | 2.75 |  | CCn1nccc1-c1sccc1Nc1cnc2c(F)cccc2c1 [I.11]
8 |  | 2.71 | Cn1nccc1-c1sccc1Nc1cnc2c(F)c(F)ccc2c1 [I.13, 7,8-difluoro-N-[2-(1-methyl-1H-pyrazol-5-yl)-3-thienyl]quinolin-3-amine]
9 | 2.94 |  | Cn1nccc1-c1sccc1Nc1cnc2c(F)c(F)ccc2n1 [I.14]
10 | 2.23 |  | Cc1nc2c(F)c(F)ccc2nc1Nc1cccnc1-c1ccnn1C [I.17]
11 | 2.00 |  | Cc1nc2c(F)c(F)ccc2nc1Nc1cncnc1-c1ccnn1C [I.19]
12 | 2.74 |  | Cc1nc2c(F)c(F)ccc2cc1Nc1ccsc1-c1ccnn1C [I.21]
13 | 3.29 |  | CCn1nccc1-c1sccc1Nc1cnc2c(F)c(F)ccc2n1 [I.23]
14 | 2.33 |  | CCCn1nccc1-c1cnccc1Nc1nc2ccc(F)c(F)c2nc1C [I.27]
15 | 2.60 |  | CCn1nccc1-c1c(F)cncc1Nc1cc2ccc(F)c(F)c2nc1C [I.28]
16 |  | 2.27 | Cc1nc2c(F)c(F)ccc2cc1Nc1ccnc(Cl)c1-c1ccnn1C [I.29, N-[2-chloro-3-(1-methyl-1H-pyrazol-5-yl)pyridin-4-yl]-7,8-difluoro-2-methylquinolin-3-amine]
17 | 2.28 |  | CCn1nccc1-c1c(Nc2nc3ccc(F)c(F)c3nc2C)cncc1OC [I.30]
18 | 2.86 |  | CCCn1nccc1-c1c(F)cncc1Nc1cc2ccc(F)c(F)c2nc1C [I.31]
19 | 3.06 |  | CCn1nccc1-c1c(Cl)cncc1Nc1nc2ccc(F)c(F)c2nc1C [I.32]
20 | 2.64 |  | CCCn1nccc1-c1c(Nc2nc3ccc(F)c(F)c3nc2C)cncc1OC [I.33]
21 | 2.82 |  | CCCn1nccc1-c1c(Nc2cc3ccc(F)c(F)c3nc2C)ccnc1Cl [I.34]
22 |  | 3.44 | CCCn1nccc1-c1c(Cl)cncc1Nc1nc2ccc(F)c(F)c2nc1C [I.35, N-[5-chloro-4-(1-propyl-1H-pyrazol-5-yl)pyridin-3-yl]-5,6-difluoro-3-methylquinoxalin-2-amine]
23 | 2.49 |  | Cn1nccc1-c1cscc1Cc1cnc2c(F)cccc2c1 [I.36]
24 | 3.77 |  | Fc1cccc2cc(Cc3cscc3-c3ccsc3)cnc12 [I.37]
25 |  | 3.01 | Cc1nc2c(F)c(F)ccc2cc1Cc1cscc1-c1ccnn1C [I.38, 7,8-difluoro-2-methyl-3-{[4-(1-methyl-1H-pyrazol-5-yl)-3-thienyl]methyl}quinoline]
26 | 4.47 |  | Cc1nc2c(F)c(F)ccc2cc1Cc1cscc1-c1ccsc1 [I.39]

Row | logP | chromatographic logP | Molecule
27 | 2.11 |  | CCCn1nccc1-c1c(C)cncc1Nc1cc2ccc(F)c(F)c2nc1C [I.40]
28 | 2.22 |  | CCn1nccc1-c1c(F)cncc1Nc1cc2ccc(F)c(OC)c2nc1C [I.41]
29 | 2.06 |  | CCn1nccc1-c1c(Nc2cc3ccc(F)c(F)c3nc2C)cncc1OC [I.42]
30 | 2.86 |  | CCn1nccc1-c1c(Cl)cncc1Nc1cc2ccc(F)c(F)c2nc1C [I.43]
31 | 2.51 |  | CCCn1nccc1-c1c(F)cncc1Nc1cc2ccc(F)c(OC)c2nc1C [I.44]
32 | 2.30 |  | CCCn1nccc1-c1c(Nc2cc3ccc(F)c(F)c3nc2C)cncc1OC [I.45]
33 | 3.20 |  | CCCn1nccc1-c1c(Cl)cncc1Nc1cc2ccc(F)c(F)c2nc1C [I.46]
34 | 3.10 |  | CCOCn1nccc1-c1ccsc1Cc1cnc2c(F)cccc2c1 [I.47]
35 | 3.64 |  | CCOCn1nccc1-c1ccsc1Cc1cc2ccc(F)c(F)c2nc1C [I.48]
36 | 2.92 |  | Cc1nc2c(F)c(F)ccc2cc1Cc1cccnc1Br [IIa.01]
37 | 2.07 |  | CS(=O)(=O)N(c1cnc2c(F)cccc2c1)c1cccnc1Cl [IIa.02]
38 | 2.41 |  | Cc1nc2c(F)c(F)ccc2nc1Nc1cnccc1Cl [IIc.01]
39 | 2.94 |  | Cc1nc2c(F)c(F)ccc2cc1Nc1cncc(F)c1I [IIc.02]
40 | 3.36 |  | Fc1cccc2cc(Cc3cscc3Br)cnc12 [IIf.01]
41 |  | 4 | Cc1nc2c(F)c(F)ccc2cc1Cc1cscc1Br [IIf.02, 3-[(4-bromo-3-thienyl)methyl]-7,8-difluoro-2-methylquinoline]
42 | 3.50 |  | Fc1cccc2cc(Cc3sccc3Br)cnc12 [IIg.01]
43 | 4.19 |  | Cc1nc2c(F)c(F)ccc2cc1Cc1sccc1Br [IIg.02]
44 |  | 1.73 | CCn1nccc1-c1ccncc1Cl [IXc.01, 3-chloro-4-(1-ethyl-1H-pyrazol-5-yl)pyridine]
45 |  | 2.29 | Cn1nccc1-c1sccc1Br [IXe.01, 5-(3-bromo-2-thienyl)-1-methyl-1H-pyrazole]
46 |  | 2.72 | CCn1nccc1-c1sccc1Br [IXe.02, 5-(3-bromo-2-thienyl)-1-ethyl-1H-pyrazole]
47 |  | 0.11 | CCCn1nccc1-c1ccncc1N [XIc.01, 4-(1-propyl-1H-pyrazol-5-yl)pyridin-3-amine]
48 |  | 0.08 | CCn1nccc1-c1c(N)cncc1OC [XIc.02, 4-(1-ethyl-1H-pyrazol-5-yl)-5-methoxypyridin-3-amine]
49 |  | 1.3 | CCn1nccc1-c1c(N)cncc1Cl [XIc.03, 5-chloro-4-(1-ethyl-1H-pyrazol-5-yl)pyridin-3-amine]
50 |  | 0.45 | CCCn1nccc1-c1c(N)cncc1OC [XIc.04, 5-methoxy-4-(1-propyl-1H-pyrazol-5-yl)pyridin-3-amine]
51 |  | 1.64 | CCCn1nccc1-c1c(N)cncc1Cl [XIc.05, 5-chloro-4-(1-propyl-1H-pyrazol-5-yl)pyridin-3-amine]

Row | Molecule | logP | chromatographic logP
52 | Cc1nc2ccccc2nc1Nc1ccsc1-c1ccnn1C [I.04] | 2.47 | 
53 | Cn1nccc1-c1sccc1Nc1cnc2c(F)cccc2c1 [I.05] | 2.49 | 
54 | CCn1nccc1-c1sccc1Nc1cnc2ccccc2c1C [I.06] | 1.60 | 
55 | CCn1nccc1-c1sccc1Nc1nc2ccccc2nc1C [I.07] | 2.80 | 
56 | Cn1nccc1-c1sccc1Nc1cnc2ccccc2c1Cl [I.12] | 2.66 | 
57 | Cc1nc2c(F)c(F)ccc2cc1Cc1cccnc1-c1ccnn1C [I.15] | 2.17 | 
58 | Cc1nc2c(F)c(F)ccc2cc1Nc1cccnc1-c1ccnn1C [I.16] | 2.04 | 
59 | Cc1nc2c(F)c(F)ccc2cc1Cc1cccnc1-c1ccsc1 [I.18] | 2.05 | 
60 | CCn1nccc1-c1sccc1Nc1cnc2ccccc2c1Cl [I.20] | 2.98 | 
61 | CCn1nccc1-c1sccc1Nc1cnc2c(F)c(F)ccc2c1 [I.22] | 2.92 | 
62 | Cc1nc2c(F)c(F)ccc2nc1Nc1ccsc1-c1ccnn1C [I.24] | 2.90 | 
63 | CCn1nccc1-c1sccc1Nc1cc2ccc(F)c(F)c2nc1C [I.25] | 3.11 | 
64 | CCn1nccc1-c1sccc1Nc1nc2ccc(F)c(F)c2nc1C [I.26] | 3.27 | 

Same assay, conditions: HPLC, reversed-phase C 18, 40° C., 0.1% aqueous formic acid and acetonitrile, gradient 10% to 95% acetonitrile

Row | logP | Molecule
65 | 1.53 | 3-bromo-2-(1-methyl-1H-pyrazol-5-yl)pyridine [IXa.01]
